The values below come from paper PMC10419416, “Fighting Pseudomonas aeruginosa Infections: Antibacterial and Antibiofilm Activity of D-Q53 CecB, a Synthetic Analog of a Silkworm Natural Cecropin B Variant” (International Journal of Molecular Sciences, 2023).

The subject of data set [1] is T1, P. aeruginosa elastase.
T1 construct: purchased Elastin Products Company
The data set is described as follows: Enzymatic digestion with P. aeruginosa elastase, RP-HPLC. The format is in vitro ADME. The settings on record: isolated enzyme elastase; peptide 1 mg/mL in 10 mM Tris-HCl pH 7.5, 20 U P. aeruginosa elastase, 37 °C, 30 min, RP-HPLC C18 peak integration; read-out: % of full-length peptide. How it is done: (§1) L- and D-Q53 CecB peptides, as well as the human LL-37 peptide (Merck, Burlington, MA, USA), were dissolved in 10 mM Tris-HCl, pH 7.5, at a final concentration of 1 mg/mL. Subsequently, 120 μL of each peptide solution were incubated at 37 °C with 20 U of human leukocyte elastase (Merck) or P. aeruginosa elastase (Elastin Products Company, Owensville, MO, USA) and 5 μL of 10 mM Tris-HCl, pH 7.5. At given time intervals (30, 60, 120, and 300 min), a volume corresponding to 30 μg of each peptide was diluted in 70 μL of 1% trifluoroacetic acid (TFA) to stop the reaction. Peptide suspensions,v without any enzyme (undigested controls), were processed in parallel. Each solution was analyzed by RP-HPLC, using a Phenomenex LC C18 analytical column (300 Å, […], 250 × 4.6 mm; Phenomenex, Torrance, CA, USA) and a Widepore C18 security guard cartridge (4 × 3.0 mm; Phenomenex, Torrance, CA, USA), in a 30 min-linear Acetonitrile (ACN) gradient (from 0% to 40% for L- and D-Q53 CecB peptides; from 20% to 60% for LL-37). A Waters Alliance 2695 Separations Module connected to a 996 PDA (Waters, Milford, MA, USA) was employed for RP-HPLC.

Data set [2] concerns T2, human neutrophil elastase.
T2 construct: purchased Merck
The data set is described as follows: Enzymatic digestion with human neutrophil elastase, RP-HPLC. It counts as in vitro ADME. The settings on record: isolated enzyme elastase; peptide 1 mg/mL in 10 mM Tris-HCl pH 7.5, 20 U human leukocyte elastase, 37 °C, 5 h (300 min), RP-HPLC C18 peak integration; read-out: % of intact peptide. How it is done:
as §1

Data set [3] has as its system P. aeruginosa ATCC 27853, non-mucoid strain. The format is cell-based, Pseudomonas aeruginosa. As to conditions: for biofilm biomass vs untreated controls (biofilm formation): 24 h. The protocol:
(§2) An ON bacterial culture was diluted to 2 × 10^6 cells/mL in an LB medium. 50 µL/well were seeded in a sterile non-treated polystyrene 96-well plate (Corning) and added with 50 µL LB medium containing serial dilutions of each compound (final concentrations of L- and D-Q53 CecB peptides: from 0.034 to 17.6 µM; final concentrations of tobramycin: 0.27 and 0.53 μM, and from 2.14 to 17 μM). Each condition was tested in three-six replicates. Wells containing untreated bacteria (negative controls) or LB medium only (blank) were followed in parallel. Each plate was incubated for 24 h at 37 °C without agitation. After washing twice, samples were stained with a 0.1% crystal violet solution for 20 min, washed three times, and incubated in 30% acetic acid for 20 min, as in [74]. Plates were read at 595 nm using a microplate reader. For each sample, the biofilm biomass percentage was calculated relative to that of the untreated control showing the highest OD value, set equal to 100%. Each experiment was performed at least twice.

Data set [4] relates to P. aeruginosa ATCC 25668, mucoid strain. It counts as cell-based, Pseudomonas aeruginosa. As to conditions: for biofilm biomass vs untreated controls (biofilm formation): 24 h. How it is done: as §2
The subject of data set [5] is P. aeruginosa PAO1-L strain. Description: microbe, parasite or virus in culture. It counts as cell-based, Pseudomonas aeruginosa. As to conditions: Pseudomonas aeruginosa, value between parentheses, 24 h, 37 °C, plating on LBA. How it is done:
(§3) The following strains were used: P. aeruginosa ATCC 27853, ATCC 25668, and PAO1-L (Lausanne subline). All strains were grown at 37 °C in Luria Bertani (LB) medium or in Luria Bertani Agar (LBA) plates.
(§4) The antibacterial activities of L- and D-Q53 CecB were evaluated by determining (i) the MIC and (ii) the MBC. Tobramycin (Merck) was used as an antibiotic control. (i) An overnight (ON) bacterial culture was diluted to 1 × 10^6 cells/mL in LB medium. 50 µL/well were seeded in sterile polypropylene 96-well plates (Corning, Corning, NY, USA) and added with 50 µL LB medium, containing serial dilutions of each compound (final concentrations of L- and D-Q53 CecB peptides from 1.1 to 35.2 µM; final concentrations of tobramycin from 0.26 to 17 μM; each condition in triplicate). Microbial suspensions in the growing medium (positive control) and wells with only the medium (negative controls) were processed in parallel. Plates were incubated 24 h at 37 °C with agitation (300 rpm), and the absorbance was measured at 600 nm in a microplate reader. The MIC was considered as the lowest concentration determining a delta optical density at 600 nm (ΔOD600) equal to 0 ± 0.05. The ΔOD600 was determined by subtracting the OD600 recorded at time 0 from that obtained after 24 h. Each experiment was performed at least three times. […] For each sample, 100 μL of 1:10, 1:100, and 1:1000 dilutions were plated on LBA plates, and colonies were counted after 24 h at 37 °C. […] Each experiment was performed at least twice.

The test system of data set [6] is P. aeruginosa ATCC 27853 and ATCC 25668 strains. The data set is described as follows: microbe, parasite or virus in culture. The format is cell-based, Pseudomonas aeruginosa. The settings on record: Pseudomonas aeruginosa, 24 h. How it is done:
as §3, §4

For data set [7], the system named is P. aeruginosa ATCC 25668, ATCC 27853, and PAO1-L strains. Description: microbe, parasite or virus in culture. It counts as cell-based, Pseudomonas aeruginosa. The settings on record: Pseudomonas aeruginosa; LB medium, 24 h, 37 °C, OD600; same value for all three strains; triplicate, at least three experiments. How it is done: as §3, §4
Data set [8] deals with P. aeruginosa ATCC 27853, non-mucoid strain. Description: Degradation of pre-formed 24 h old biofilm, crystal violet. The settings on record: 1 h; L-Q53 CecB 1/2 to 8 MIC, tobramycin 1 to 8 MIC. It counts as cell-based, Pseudomonas aeruginosa. How it is done:
(§5) One hundred μL of bacteria (1 × 10^6 cells/mL), derived from a fresh ON culture, were seeded in a sterile non-treated polystyrene 96-well plate (Corning) and incubated for 24 h at 37 °C without agitation. […] Evaluation of biofilm biomass was performed using a crystal violet assay as described above (Section 4.8). Experiments were performed two-four times.

Data set [9] relates to P. aeruginosa ATCC 25668, mucoid strain. The data set is described as above. It counts as cell-based, Pseudomonas aeruginosa. The settings on record: 1 h; L-Q53 CecB 1/2 to 8 MIC (except 4 MIC), tobramycin 1 to 8 MIC. The protocol: as §5
[10] abbreviates: concentrations from 8 to 1 MIC (1 MIC = 2.2 µM peptides, 2.14 µM tobramycin), 24 h static, 37 °C, stated for both strains.

Converted amounts (≈) assume the structure as drawn. Where two headings read alike, the source gives them in different places.

Regarding `CC[C@H](C)[C@H](NC(=O)[C@H](CCCCN)NC(=O)[C@H](CCC(=O)O)NC(=O)[C@H](CCCCN)NC(=O)[C@H](CO)NC(=O)[C@H](CCCCN)NC(=O)[C@H](CCCNC(=N)N)NC(=O)[C@H](Cc1ccccc1)NC(=O)[C@H](Cc1ccccc1)NC(=O)[C@H](CC(=O)O)NC(=O)CNC(=O)[C@H](CC(C)C)NC(=O)[C@@H](N)CC(C)C)C(=O)NCC(=O)N[C@@H](CCCCN)C(=O)N[C@@H](CCC(=O)O)C(=O)N[C@@H](Cc1ccccc1)C(=O)N[C@@H](CCCCN)C(=O)N[C@@H](CCCNC(=N)N)C(=O)N[C@H](C(=O)N[C@H](C(=O)N[C@@H](CCC(N)=O)C(=O)N[C@@H](CCCNC(=N)N)C(=O)N[C@H](C(=O)N[C@@H](CCCCN)C(=O)N[C@@H](CC(=O)O)C(=O)N[C@@H](Cc1ccccc1)C(=O)N[C@@H](CC(C)C)C(=O)N[C@@H](CCCNC(=N)N)C(=O)N[C@@H](CC(N)=O)C(=O)N[C@@H](CC(C)C)C(=O)N[C@H](C(=O)N1CCC[C@H]1C(=O)N[C@@H](CCCNC(=N)N)C(=O)N[C@H](C(=O)N[C@@H](CCC(=O)O)C(=O)N[C@@H](CO)C(=O)O)[C@@H](C)O)C(C)C)[C@@H](C)CC)C(C)C)[C@@H](C)CC` [LL-37, reference compound], in data set [1], the remaining at 0.5 h, 1 mg/mL was roughly 0.2%. Moreover, the remaining at 5 h, 1 mg/mL in data set [2] was determined as 8.7%.
Take `NC[C@H]1O[C@H](O[C@H]2[C@H](O)[C@@H](O[C@H]3O[C@H](CO)[C@@H](O)[C@H](N)[C@H]3O)[C@H](N)C[C@@H]2N)[C@H](N)C[C@@H]1O` [Tobramycin, reference compound]: the “biofilm biomass vs untreated controls (biofilm formation)” value in [3] (1/4 MIC) is recorded as “not affected”; in data set [3] (1/8 MIC) it was “not significantly different”; in data set [4] (1/4 MIC), “significantly higher”; in data set [4] (1/8 MIC), “not significantly different”. For the same compound, the “decrement in biofilm biomass vs untreated controls (inhibition of biofilm formation)” value in data set [3] (setting [10]) and in data set [4] (setting [10]) was ~ 99.9% throughout. The MBC was 8.56 µM (≈ 4 µg/mL) in [5] and 4.29 µM (≈ 2.01 µg/mL) in [6]. For the same compound, the MIC in data set [7] is 2.14 µM (≈ 1 µg/mL). Further, the “reduction of pre-formed biofilm biomass at all tested concentrations” value in [8] and in data set [9] was “not efficient” in each case.
